The values below come from patent US20110039762A1, “TARGETED ANTIMICROBIAL MOIETIES” (C3 JIAN, INC., priority 2009, published 2011).

Entries after “also recorded” stand apart in the source; their conditions may differ.

In this test the test system is microorganisms (e.g., bacteria, yeasts, fungi). Kind of test: Targeting peptide binding to target microorganisms (Table 3). To be noted: microorganism(s) the targeting peptide binds; binding in aqueous buffers depending on peptide solubility, preferably 1x PBS.
For the substance “PF-146 (GCGKRRIITKSASRDTR; Peptide with targeting and/or antimicrobial activity)”, the “Target(s)” value was “S. epidermidis and M. luteus and P. aeruginosa and C. albicans and MRSA and C. jeikeium”. Consider “PF-147 (RRPRRRRSGHGQSASAA; Peptide with targeting and/or antimicrobial activity)”, for which the “Target(s)” value was “S. epidermidis and M. luteus and MRSA”. In the case of “PF-150 (EIQAKGTG; Peptide with targeting and/or antimicrobial activity)” it was “S. epidermidis and MRSA”; in that of “PF-151 (EEYPARVPLSGEDVTEARRH; Peptide with targeting and/or antimicrobial activity)”, “S. epidermidis and MRSA and E. faecalis and C. jeikeium”; in that of “PF-152 (VGYFIWKDSHSRKG; Peptide with targeting and/or antimicrobial activity)”, “S. epidermidis and C. albicans and MRSA and E. faecalis and C. jeikeium”. In the case of “PF-154 (GIKKSKHPSTDDYVVKTTIDSL; Peptide with targeting and/or antimicrobial activity)” it was “S. mutans”; in that of “PF-155 (GRYGDDSKERQGRAQ; Peptide with targeting and/or antimicrobial activity)”, “C. jeikeium”. As for “PF-158 (VRLESRPADLPE; Peptide with targeting and/or antimicrobial activity)”, the “Target(s)” value is given as “S. epidermidis”.

With “PF-159 (TMAFVEKAQLRVPVGDDLPV; Peptide with targeting and/or antimicrobial activity)”, the “Target(s)” value is “S. epidermidis”.

As for “PF-160 (SFHASLTKNEKPIKSTG; Peptide with targeting and/or antimicrobial activity)”, the “Target(s)” value is recorded as “S. epidermidis”. As for “PF-161 (RGRALASTATTRPARRRR; Peptide with targeting and/or antimicrobial activity)”, the “Target(s)” value is on record as “S. epidermidis; also recorded: M. luteus; also recorded: E. coli; also recorded: C. jejuni”. With “PF-162 (GIRRLHSVENLNREISHRMAGLR; Peptide with targeting and/or antimicrobial activity)”, the “Target(s)” value was “S. epidermidis and MRSA”. For “PF-163 (TSWLRAAERQEIGEPTKTFGEKTTSL; Peptide with targeting and/or antimicrobial activity)”, the “Target(s)” value is “S. epidermidis”. In the case of “PF-165 (GPVSVVASLRRGTTVQRHSQNNHNKGKP; Peptide with targeting and/or antimicrobial activity)” it was “MRSA and C. jejuni”. As for “PF-166 (SKAVSRKRSI; Peptide with targeting and/or antimicrobial activity)”, the “Target(s)” value is “E. coli; also recorded: C. jeikeium”. Take “PF-169 (APGSAADSPRSRADD; Peptide with targeting and/or antimicrobial activity)”: the “Target(s)” value is reported as “S. epidermidis; also recorded: E. coli; also recorded: C. albicans; also recorded: E. faecalis; also recorded: C. jeikeium”. As for “PF-172 (LTGVRRPWRAPWAGTSGWALR; Peptide with targeting and/or antimicrobial activity)”, the “Target(s)” value was “S. epidermidis and M. luteus and E. coli and P. aeruginosa and MRSA and E. faecalis and C. jejuni”. Take “PF-174 (RGGDSPARRRPGLAGPGGPG; Peptide with targeting and/or antimicrobial activity)”: the “Target(s)” value is on record as “S. epidermidis; also recorded: P. aeruginosa; also recorded: C. jeikeium”. The result for “PF-177 (VTSEPGIAHDIRLLPRAAAFR; Peptide with targeting and/or antimicrobial activity)” reads “M. luteus and MRSA and E. faecalis and C. jeikeium”; that for “PF-181 (GIAPRRNEWGAVGGR; Peptide with targeting and/or antimicrobial activity)”, “S. epidermidis and M. luteus and E. coli and MRSA and E. faecalis and C. jeikeium”; that for “PF-182 (LPATRDKTRVPASVAGAP; Peptide with targeting and/or antimicrobial activity)”, “S. epidermidis; also recorded: M. luteus; also recorded: E. coli; also recorded: E. faecalis; also recorded: C. jeikeium”. The result for “PF-183 (KPGISVENRQ; Peptide with targeting and/or antimicrobial activity)” reads “S. epidermidis and M. luteus and E. coli and C. albicans and MRSA and E. faecalis and C. jeikeium”; that for “PF-184 (LIADRHIRA; Peptide with targeting and/or antimicrobial activity)”, “S. epidermidis and M. luteus and E. coli and P. aeruginosa and C. albicans and MRSA and C. jeikeium”. Turning to “PF-185 (RPAQARQGPGGLIADRHIRA; Peptide with targeting and/or antimicrobial activity)”, the “Target(s)” value was “E. coli; also recorded: P. aeruginosa”. In the case of “PF-187 (EIQKIAKGVSGQVYGPSRQITISKKR; Peptide with targeting and/or antimicrobial activity)” it was “S. epidermidis and M. luteus and E. coli and MRSA”; in that of “PF-189 (GNLTRSREAARATQ; Peptide with targeting and/or antimicrobial activity)”, “S. epidermidis and M. luteus and C. albicans and MRSA and E. faecalis and C. jejuni”. In the case of “PF-193 (PPHCPPGHAKKGWC; Peptide with targeting and/or antimicrobial activity)” it was “S. epidermidis and M. luteus and E. coli and MRSA and E. faecalis and C. jejuni”; in that of “PF-194 (MKGNKLATAHEQPVKNSAPPL; Peptide with targeting and/or antimicrobial activity)”, “C. jeikeium”; in that of “PF-195 (EMAEGSADDRLRKTPRDC; Peptide with targeting and/or antimicrobial activity)”, “S. epidermidis; also recorded: M. luteus; also recorded: E. faecalis; also recorded: C. jeikeium”. The result for “PF-197 (CNALLRRGHPPSAL; Peptide with targeting and/or antimicrobial activity)” reads “S. epidermidis; also recorded: M. luteus; also recorded: C. albicans; also recorded: E. faecalis; also recorded: C. jejuni”. Regarding “PF-200 (GIELKSLIMAQIERWRQA; Peptide with targeting and/or antimicrobial activity)”, the “Target(s)” value was “S. epidermidis and M. luteus and MRSA and E. faecalis and C. jeikeium”. Turning to “PF-201 (GCRPASLSDADPDGR; Peptide with targeting and/or antimicrobial activity)”, the “Target(s)” value is on record as “S. epidermidis; also recorded: M. luteus; also recorded: E. coli; also recorded: C. albicans; also recorded: E. faecalis; also recorded: C. jeikeium; also recorded: C. jejuni”.

In the case of “PF-202 (ALNRASLRLALGE; Peptide with targeting and/or antimicrobial activity)”, the “Target(s)” value was “S. epidermidis and M. luteus and E. coli and MRSA and E. faecalis and C. jeikeium and C. jejuni”.

Consider “PF-206 (KLRSASKKSLQEKSCGIMPEKPAG; Peptide with targeting and/or antimicrobial activity)”, for which the “Target(s)” value is “M. luteus; also recorded: C. albicans; also recorded: C. jeikeium; also recorded: C. jejuni”.
